Results published in patent US6376175B1, “Methods of discovering chemicals capable of functioning as gene expression modulators” (OSI Pharmaceuticals, Inc., priority 1989, dated 2002).

B1: Interferon-gamma: proteinaceous positive regulator (protein, UniProt P01579 24-161, looked up)
Interferon gamma: QDPYVKEAENLKKYFNAGHSDVADNGTLFLGILKNWKEESDRKIMQSQIVSFYFKLFKNFKDDQSIQKSVETIKEDMNVKFFNSNKKKRDDFEKLTNYSVTDLNVQRKAIHELIQVMAELSPAAKTGKRKRSQMLFRG

Columns and labels:
G-CSF mRNA = assay: S1 nuclease protection, G-CSF mRNA in 5637 cells; type: cell-based, human; settings: 18 hours, 542 (10, 50, 250 microM), 1255 (20, 100, 500 microM), 1793 (0.25, 1.2, 6.25 microM), 1904 (20, 100 microM)
Procedure: (§1) S1 Nuclease protection assays were carried out as described in reference 94.
(§2) To further confirm, that compounds that had been identified in a luciferase expression assay using a G-CSF specific reporter cell line would be active in inducing transcription of the endogenous G-CSF gene, cells from the parental cell line 5637 used to construct the reporter cell line were incubated with cycloheximide (25 microg/ml), DMSO (0.5%, solvent control) and low, medium and high concentrations of the compounds 542 (10, 50, 250 microM),1255 (20, 100, 500 microM), 1793(0.25, 1.2, 6.25 microM) and 1904 (20, 100 microM) for 18 hours. RNA was extracted and the concentration of G-CSF, GM-CSF and gamma-actin mRNA was determined by the S1 protection method as described in Materials and Methods. The positions of G-CSF GM-CSF and gamma-actin specific protected fragments are indicated (G, GM, A) at the left side of the gel (FIG. 54).

GM-CSF mRNA = assay: S1 nuclease protection, GM-CSF mRNA in 5637 cells; type: cell-based, human; settings: 18 hours, low, medium and high concentrations
Procedure: as §1, §2

secreted G-CSF protein = assay: Two-antibody sandwich immunoassay of G-CSF secreted by 5637 bladder carcinoma cells; type: cell-based, human; settings: 5637 cells, 48 hours, serum-containing media; TNF-alpha 5 ng/ml; #542 50 uM; #1780 1 uM and 0.2 uM; FIG. 55
Procedure: Supernatants from 5637 bladder carcinoma cells incubated with chemicals registering as positives in the G-CSF promoter/luciferase High-Throughput assay were assayed for secreted G-CSF protein using the two-antibody sandwich immunoassay (96). The G-CSF Assay kit manufactured by Oncogene Science, Inc. was used and the manufacturer's instructions were followed.
The levels of G-CSF in the cell supernatants were determined by a sandwich-antibody assay as described in Materials and Methods (FIG. 55).

FRE cells = type: cell-based
Procedure: To determine cytotoxic concentrations of chemicals registering as positives in the High-Throughput luciferase assay the MTT cytotoxicity assay was employed (95). In this assay, a tetrazolium salt [3-(4,5-dimethylthiazol-2-yl)-2,5-diphenyl-tetrazolium bromide, MTT] is reduced to a colored formazan product by reducing enzymes present only in living metabolically active cells.
Cells were seeded into 96 well microtiterplates (20 000 cells/well) and cultured overnight. Compound #542 was added at various concentrations and the cells were incubated for 6 hours. Luciferase activity was determined as described in Materials and Methods. The MTT-colorimetric assay was carried out on identically treated samples of FRE cells. Induction of luciferase reporter signal (plain line) and on inhibition of respiration (dashed line) are plotted versus the concentrations of compound (FIG. 56). The ED50 for induction of luciferase activity differed from the ED50 for inhibition of respiration by a factor of almost 10, which might indicate that compound #542 exerts a specific effect on G- and GM-CSF transcription.

endogenous G-CSF mRNA = assay: Northern blot of endogenous G-CSF mRNA in 5637 cells; type: cell-based, human; settings: compared to solvent DMSO, normalized with beta-actin probe
Procedure: Total cellular RNA was isolated from the G21 cell clone or from untransfected 5637 cells following incubation for 6 hours with various transcriptionally modulating chemicals identified in the high-throughput screen. Cells were grown in serum free medium as described above. Total cellular RNA was isolated using the RNAZol method (CINNA/BIOTECX, Friendswood, Tex., Laboratories International, Inc.). Cells were resuspended and lysed with RNAZol solution (1.5 ml/9 cm petri dish) and the RNA was solubilized by passing the lysate a few times through a pipette. Chloroform was added to the homogenate (0.1 ml/1 ml), and samples were shaken for 15 seconds followed by a 5 minutes incubatoin on ice. After centrifuging for 10 minutes, the upper phase was collected and an equal volume of isopropanol was added. Samples were incubated for 45 minutes at −20 C, and the RNA was pelleted for 15 minutes at 12,000×g at 4 C. The RNA pellet was then washed with 70% ethanol and dried briefly under vacuum.
Total cellular RNA was isolated from 5637 cells following incubation with chemicals as described above and electrophoresed in a 1% Agarose-[…] Formaldehyde gel. The RNA was transferred to Duralon-UV nylon filters (Stratagene, La Jolla, Calif.) using the manufacturer's recommended protocol. The filters were prehybridized for 4 hours (prehybridizing solution=5X SSC, 50 mM sodium pyrophosphate, 10X Denhardt's solution, 10% dextran sulfate, 7% and 250 µg/ml denatured ssDNA) and then hybridized in the same solution for 16 hours at 65 C in the presence of G-CSF or Beta-Actin (Oncor, Gaithersburg, Md.) specific probes. The G-CSF probe was a 0.6 kb AflII o Xhol fragment which contained most of exon 5 of the human G-CSF gene. The B-actin probe was used as a control probe to normalize for the total amount of RNA. […] Bands were excised and counted in a liquid scintillation counter (LKB, Gaithersburg, Md.), and counts obtained with the G-CSF specific probe were normalized relative to the counts obtained with the B-Actin specific probe. […]

Molecule	amount of G-CSF mRNA (S1 protection) (G-CSF mRNA)	amount of GM-CSF mRNA (S1 protection) (GM-CSF mRNA)	endogenous G-CSF mRNA production (Northern blot) (endogenous G-CSF mRNA)	other results
Nc1nc(=O)n([C@H]2C[C@H](O)[C@@H](CO)O2)cc1Br [Chemical 542, 5-Bromo-2′-deoxycytidine]	increased mRNA production	increased the amount of GM-CSF mRNA	–	G-CSF secretion into media (secreted G-CSF protein): increased G-CSF secretion; factor between ED50 for induction of luciferase activity (G21) and ED50 for inhibition of respiration (FRE cells) (FRE cells): ~10
O=c1[nH]c(=O)n([C@H]2C[C@H](O)[C@@H](CO)O2)cc1Br [Chemical 543, 5-Bromo-2′-deoxyuridine]	–	showed similar activity	–	–
CN(C)c1ccc(C(=C2C=CC(=[N+](C)C)C=C2)c2ccc([N+](C)(C)C)cc2)cc1.[Cl-].[Cl-] [Chemical 670, Methyl Green]	–	–	stimulated production of G-CSF mRNA	–
Clc1cc(Cl)cc(Br)c1 [Chemical 1255, 1-Bromo-3,5-dichlorobenzene]	increased mRNA production	–	stimulated production of G-CSF mRNA	–
CN(C)c1ccc(C(=C2C=CC(=[N+](C)C)C=C2)c2ccc(N(C)C)cc2)cc1 [Chemical 1780, Crystal Violet]	–	–	–	G-CSF secretion into media (secreted G-CSF protein): increased G-CSF secretion
CN(C)C(=S)SCC#N [Chemical 1793, Cyanomethyl-N,N-dimethyl dithiocarbomate]	increased mRNA production	increased the amount of GM-CSF mRNA	–	–
Cl.Nc1c2ccccc2nc2ccccc12 [Chemical 1904, 9-Aminoacridine hydrochloride]	increased mRNA production	–	–	–
B1	–	–	increased G-CSF mRNA production	–
